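Where inhibition never reached the appropriate level, the endpoint shown equals the highest concentration tested. Otherwise, values were interpolated linearly from a five-concentration, 48-hour dose response in 96-well plates. At the GI50, growth is halved.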 Activity calls are given as the source filed them. Rule as the data show it: active = GI50 up to about 1.1 µM and inactive = higher.
Columns and labels:
Test in all cases: growth of human tumour cells (NCI), 48 h
786-0 = test system: 786-0
HCT-15 = test system: HCT-15
MDA-MB-231 = test system: MDA-MB-231
HOP-62 = test system: HOP-62
M14 = test system: M14
MOLT-4 = test system: MOLT-4
HL-60 = test system: HL-60
DU-145 = test system: DU-145
EKVX = test system: EKVX
NCI/ADR-RES = test system: NCI/ADR-RES
SF-295 = test system: SF-295
SN12C = test system: SN12C
SW-620 = test system: SW-620
SK-MEL-28 = test system: SK-MEL-28
K562 = test system: K562
SK-MEL-2 = test system: SK-MEL-2
HT-29 = test system: HT-29
SK-MEL-5 = test system: SK-MEL-5
SK-OV-3 = test system: SK-OV-3
Hs-578T = test system: Hs-578T

Row | Compound | GI50 (786-0) | GI50 (HCT-15) | GI50 (MDA-MB-231) | GI50 (HOP-62) | GI50 (M14) | GI50 (MOLT-4) | GI50 (HL-60) | GI50 (DU-145) | GI50 (EKVX) | GI50 (NCI/ADR-RES) | GI50 (SF-295) | GI50 (SN12C) | GI50 (SW-620) | GI50 (SK-MEL-28) | GI50 (K562) | GI50 (SK-MEL-2) | GI50 (HT-29) | GI50 (SK-MEL-5) | GI50 (SK-OV-3) | GI50 (Hs-578T)
1 | COc1ccc(/C=N/Nc2nc3ccccc3c(=O)n2-c2ccccc2)cc1 | > 100 µM (inactive) | > 100 µM | > 100 µM (inactive) | > 100 µM (inactive) | > 100 µM (inactive) | > 100 µM (inactive) | > 100 µM (inactive) | > 100 µM (inactive) | > 100 µM (inactive) | > 100 µM (inactive) | > 100 µM (inactive) | > 100 µM (inactive) | > 100 µM (inactive) | > 100 µM (inactive) | > 100 µM (inactive) | > 100 µM (inactive) | > 100 µM (inactive) | > 100 µM (inactive) | > 100 µM (inactive) | 
2 | c1ccc2c[n+](CCCC[n+]3ccc4ccccc4c3)ccc2c1 | > 100 µM (inactive) | > 100 µM | > 100 µM (inactive) | > 100 µM (inactive) | 1.12 µM (active) |  | > 100 µM (inactive) | > 100 µM (inactive) | > 100 µM (inactive) | > 100 µM (inactive) | > 100 µM (inactive) | > 100 µM (inactive) | > 100 µM (inactive) | > 100 µM (inactive) | > 100 µM (inactive) | > 100 µM (inactive) | > 100 µM (inactive) | > 100 µM (inactive) | > 100 µM (inactive) | 
3 | CC(=O)CC1(CBr)Nc2ccc([N+](=O)[O-])cc2NC1=O (configuration not stated) | 31.2 µM (inactive) | 82.6 µM | > 100 µM (inactive) | 83.2 µM (inactive) | > 100 µM (inactive) | 42.9 µM (inactive) |  | 42.1 µM (inactive) | > 100 µM (inactive) | > 100 µM (inactive) | > 100 µM (inactive) | 93.1 µM (inactive) | 28.7 µM (inactive) | 97.7 µM (inactive) | 83.8 µM (inactive) | > 100 µM (inactive) | 90.4 µM (inactive) | > 100 µM (inactive) | > 100 µM (inactive) | 
4 | CSc1nc(-c2cc3c(c(SC)n2)CCCCC3)cc2c1CCCCC2 | > 100 µM (inactive) | > 100 µM | > 100 µM (inactive) | 56.9 µM (inactive) | > 100 µM (inactive) | > 100 µM (inactive) | > 100 µM (inactive) | > 100 µM (inactive) | > 100 µM (inactive) | > 100 µM (inactive) | > 100 µM (inactive) | > 100 µM (inactive) | > 100 µM (inactive) | > 100 µM (inactive) | > 100 µM (inactive) | > 100 µM (inactive) | > 100 µM (inactive) | > 100 µM (inactive) | 50.1 µM (inactive) | 
5 | O=S1(=O)N2CN3CN(C2)CN1C3 | 30.5 µM (inactive) | 23.2 µM |  | 234 µM (inactive) | 36.2 µM (inactive) | 105 µM (inactive) | 23.1 µM (inactive) |  | 370 µM (inactive) | > 100 µM (inactive) | 23.8 µM (inactive) | 34.9 µM (inactive) | 23.7 µM (inactive) | > 83.6 µM (inactive) | > 31.6 µM (inactive) | 141 µM (inactive) | 26 µM (inactive) | 32.4 µM (inactive) | 230 µM (inactive) | 
6 | NC1=NC(=O)/C(=C/c2ccccc2[N+](=O)[O-])C(N)=N1 | > 100 µM (inactive) | > 100 µM |  | > 100 µM (inactive) | > 100 µM (inactive) | > 100 µM (inactive) | > 100 µM (inactive) |  | > 100 µM (inactive) |  | > 100 µM (inactive) | > 100 µM (inactive) | > 100 µM (inactive) | > 100 µM (inactive) | > 100 µM (inactive) | > 100 µM (inactive) | > 100 µM (inactive) | > 100 µM (inactive) | > 100 µM (inactive) | 
7 | CCN1C/C(=C\c2ccc(Cl)cc2)c2[nH]c(=O)c(C#N)c(-c3ccc(Cl)cc3)c2C1 | > 100 µM (inactive) | > 100 µM | > 100 µM (inactive) | > 100 µM (inactive) | > 100 µM (inactive) | 21.2 µM (inactive) | > 100 µM (inactive) | > 100 µM (inactive) | > 100 µM (inactive) | > 100 µM (inactive) |  | > 100 µM (inactive) | > 100 µM (inactive) | > 100 µM (inactive) | > 100 µM (inactive) | > 100 µM (inactive) | > 100 µM (inactive) | > 100 µM (inactive) | > 100 µM (inactive) | 
8 | COc1ccc2[nH]c3c([N+](=O)[O-])ccc(NCCCN(C)C)c3/c(=N/CCCN(C)C)c2c1 | 0.94 µM (active) | 1.53 µM | 1.5 µM (inactive) | 1.4 µM (inactive) | > 10 µM (inactive) | 0.31 µM (active) | 1.77 µM (inactive) | 3.24 µM (inactive) | 2.55 µM (inactive) |  | 1.63 µM (inactive) | 1.35 µM (inactive) | 1.63 µM (inactive) | 1.89 µM (inactive) | 1.42 µM (inactive) |  | 1.12 µM (inactive) | 1.9 µM (inactive) | 2.01 µM (inactive) | 
9 | N#CI1OC(C(F)(F)F)(C(F)(F)F)c2ccccc21 | 14.2 µM (inactive) | 15.1 µM | 24 µM (inactive) | 57.5 µM (inactive) | 19 µM (inactive) |  | 5.77 µM (inactive) | 18.6 µM (inactive) | 14.6 µM (inactive) | 15.8 µM (inactive) | 45.9 µM (inactive) | 23.1 µM (inactive) | > 10 µM (inactive) | 15.5 µM (inactive) | 12.1 µM (inactive) | 16.1 µM (inactive) | 16.4 µM (inactive) | 17.5 µM (inactive) | > 100 µM (inactive) | 
10 | Cc1ccccc1NC(=O)/C(=N/NC(=O)CC#N)C1C(=O)N(c2ccccc2)N=C1N (configuration not stated) | > 100 µM (inactive) | > 100 µM |  | > 100 µM (inactive) | > 100 µM (inactive) | 72.9 µM (inactive) | 37.9 µM (inactive) |  | > 100 µM (inactive) |  | > 100 µM (inactive) | > 100 µM (inactive) | > 100 µM (inactive) | > 100 µM (inactive) | 75.5 µM (inactive) | > 100 µM (inactive) | > 100 µM (inactive) | > 100 µM (inactive) | > 100 µM (inactive) | 
11 | O=c1ccn(C2OC(CO)C(P(=O)(O)O)C2O)c(=O)[nH]1 (configuration not stated) | > 100 µM (inactive) | > 100 µM | > 100 µM (inactive) | > 100 µM (inactive) | > 100 µM (inactive) | > 100 µM (inactive) | > 100 µM (inactive) | > 100 µM (inactive) | > 100 µM (inactive) |  | > 100 µM (inactive) | > 100 µM (inactive) | > 100 µM (inactive) | > 100 µM (inactive) | > 100 µM (inactive) | > 100 µM (inactive) | > 100 µM (inactive) | > 100 µM (inactive) |  | > 100 µM (inactive)
12 | CCOC(=O)C(=O)Nc1ccccc1C(C)C | > 100 µM (inactive) | > 100 µM |  | > 100 µM (inactive) | > 100 µM (inactive) | > 100 µM (inactive) | > 100 µM (inactive) |  | > 100 µM (inactive) |  | > 100 µM (inactive) | > 100 µM (inactive) | > 100 µM (inactive) | > 100 µM (inactive) | > 100 µM (inactive) | > 100 µM (inactive) | > 100 µM (inactive) | > 100 µM (inactive) | > 100 µM (inactive) | 
13 | O=c1c2c([nH]c3cc4c(cc13)OCO4)-c1ccccc1C2 | 28.1 µM (inactive) | 19.3 µM |  | 23.4 µM (inactive) | 20.6 µM (inactive) | 24.7 µM (inactive) | 27.7 µM (inactive) |  | 29.6 µM (inactive) |  | 26.9 µM (inactive) | 30.3 µM (inactive) | 35.2 µM (inactive) | 22.6 µM (inactive) | 27.2 µM (inactive) | 13.5 µM (inactive) | 17.7 µM (inactive) | 16 µM (inactive) | 31.3 µM (inactive) | 
14 | CC1(C)C(=O)N(CCCCCCN2C(=O)C(C)(C)c3ccccc32)c2ccccc21 | 18.2 µM (inactive) | 34.3 µM |  | 80.7 µM (inactive) | 24.6 µM (inactive) | 33.8 µM (inactive) | 2.04 µM (inactive) |  | 38.1 µM (inactive) |  | 44.1 µM (inactive) | 59.7 µM (inactive) | 14.7 µM (inactive) | 47.2 µM (inactive) | 22.6 µM (inactive) | 48.6 µM (inactive) | 19 µM (inactive) | 18.6 µM (inactive) | > 100 µM (inactive) | 
15 | CC1=NN(C(=O)c2ccccc2O)C(=O)/C1=C/c1ccccc1O | 0.521 µM (active) | 0.292 µM | 0.381 µM (active) | 0.236 µM (active) | 1.55 µM (inactive) | 0.295 µM (active) | 0.409 µM (active) | 0.132 µM (active) | 1.78 µM (inactive) | 0.558 µM (active) | 0.0736 µM (active) | 0.579 µM (active) | 1.54 µM (inactive) | 18.5 µM (inactive) | 0.0914 µM (active) | 6.4 µM (inactive) | 8.45 µM (inactive) | 1.06 µM (active) | 0.0815 µM (active) | 
16 | COc1ccc2cccc(C(=O)c3ccc(C)c4c3CCC4)c2c1 | 24.8 µM (inactive) | 19 µM |  | 24.9 µM (inactive) | 21.4 µM (inactive) | 27.6 µM (inactive) | 14.6 µM (inactive) |  | 51.2 µM (inactive) |  | 53.6 µM (inactive) | 71.9 µM (inactive) | 41.8 µM (inactive) | > 100 µM (inactive) | 30.8 µM (inactive) | 34.6 µM (inactive) | 33 µM (inactive) | 19.5 µM (inactive) | 64.3 µM (inactive) | 

— ChEMBL document CHEMBL1201862, “PubChem BioAssay data set” (2004)
